Consider seven compounds from patent US20120083599A1 (UNIVERSITY OF NOTTINGHAM, priority 2009, published 2012).

The target of one experiment is biotin ligase (BirA) (Escherichia coli, UniProt P06709). Nature of the experiment: Addition to acceptor peptide using BirA biotin ligase (HPLC). Type of experiment: biochemical, E. coli. The settings on record: for Substrate for BirA: biotin ligase (BirA) from E. coli.
In experiment [1] the target is T1, avidin (Gallus gallus, UniProt P02701). Nature of the experiment: Binding affinity for avidin by isothermal titration calorimetry. A general note: ITC needs no label: the signal is the heat of the interaction.
In experiment [2] the target is T1, avidin. The experiment in a line: Binding to avidin after click chemistry attachment of a fluorophore (native gel). On the procedure: 2) With protein (avidin) present: 0.29 mL 2-azidiobiotin solution (3.5 mM in Buffer A) was diluted in 0.71 mL Buffer A, then 1 mL avidin solution (0.21 mM) was added. The mixed solution was put in a shaker (25° C., 100 rpm) for 1 h. Then 0.5 mL alkynyl tag solution (10 mM in dioxane), 0.5 mL CuSO4-TTA solution (10 mM in ^tBuOH:H2O (4:1) solvents), 0.2 mL TCEP.HCl solution (50 mM in H2O), 0.5 mL NaHCO3 solution (200 mM in H2O), 0.25 mL ^tBuOH, 1 mL H2O were added to the reaction mixture. The mixture was put on the shaker (25° C., 100 rpm) for 2 h, then stored at 4° C. Buffer A: pH 7.4 20 mM phosphate, 150 mM NaCl buffer.

The next experiment relates to other biotin ligases. To be noted: cited from earlier work.
Experiment [3] concerns the target T2, biotin ligase (Saccharomyces cerevisiae, UniProt P48445).
T2 sequence (P48445 1-690): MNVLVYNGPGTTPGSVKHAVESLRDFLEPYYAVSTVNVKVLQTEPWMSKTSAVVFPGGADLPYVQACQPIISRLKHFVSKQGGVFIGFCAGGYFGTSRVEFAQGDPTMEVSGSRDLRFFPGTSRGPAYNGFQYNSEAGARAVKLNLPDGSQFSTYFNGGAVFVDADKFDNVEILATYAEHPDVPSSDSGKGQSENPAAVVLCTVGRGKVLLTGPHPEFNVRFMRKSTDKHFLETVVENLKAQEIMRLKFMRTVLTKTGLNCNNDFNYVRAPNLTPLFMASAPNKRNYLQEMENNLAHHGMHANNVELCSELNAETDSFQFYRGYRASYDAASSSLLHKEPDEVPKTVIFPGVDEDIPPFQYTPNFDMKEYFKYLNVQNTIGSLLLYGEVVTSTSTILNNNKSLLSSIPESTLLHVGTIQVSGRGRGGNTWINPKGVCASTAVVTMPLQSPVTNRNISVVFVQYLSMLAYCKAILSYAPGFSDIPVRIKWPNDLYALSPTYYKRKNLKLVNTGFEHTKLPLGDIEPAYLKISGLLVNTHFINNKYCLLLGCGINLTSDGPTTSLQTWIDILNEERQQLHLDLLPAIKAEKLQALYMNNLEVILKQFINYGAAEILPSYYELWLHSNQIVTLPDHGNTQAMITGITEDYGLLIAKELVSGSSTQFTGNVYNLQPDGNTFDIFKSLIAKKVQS
To be noted: cited from earlier work.

Experiment [4] relates to biotin ligase. To be noted: cited from earlier work.
In the next experiment the target is BirA (Escherichia coli, UniProt P06709). The settings on record: cited from earlier work.

Like-named read-outs stand apart in the source and are kept apart here.

T1 sequence (P02701 25-152, species assumed): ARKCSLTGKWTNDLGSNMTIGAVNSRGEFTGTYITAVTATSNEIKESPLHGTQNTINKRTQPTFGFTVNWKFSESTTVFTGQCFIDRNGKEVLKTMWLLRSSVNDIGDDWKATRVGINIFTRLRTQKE
Chain of biotin ligase (BirA) (P06709 whole entry): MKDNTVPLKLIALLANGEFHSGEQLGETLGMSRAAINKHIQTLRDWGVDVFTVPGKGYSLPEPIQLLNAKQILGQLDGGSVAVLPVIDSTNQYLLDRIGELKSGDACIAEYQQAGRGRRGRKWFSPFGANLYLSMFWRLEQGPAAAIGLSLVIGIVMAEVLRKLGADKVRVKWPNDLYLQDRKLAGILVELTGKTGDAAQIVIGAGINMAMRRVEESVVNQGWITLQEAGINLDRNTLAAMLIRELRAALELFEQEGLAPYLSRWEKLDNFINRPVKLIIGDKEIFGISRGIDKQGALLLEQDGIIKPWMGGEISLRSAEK
Chain of BirA (P06709 whole entry): as above

Take 6-Azidodesthiobiotin: the “Substrate for BirA” value on biotin ligase (BirA) is “not substrates”. Further, the “Substrate for BirA” value on biotin ligase (BirA) (listed as E 6-azido-desthiobiotin) is listed as “No”. At avidin [1], the “Affinity for avidin (in words)” value is “low affinities” and the Binds to avidin result is recorded as “Very weak”. Moreover, the “Binds to avidin once covalently modified” value on avidin [2] is on record as “No”.

Take 8-Azidodesthiobiotin: the “Substrate for BirA” value at biotin ligase (BirA) is listed as “not substrates”. Further, the “Substrate for BirA” value at biotin ligase (BirA) (listed as D 8-azido-desthiobiotin) is “No”. For the same compound, at avidin [1], the “Affinity for avidin (in words)” value was “low affinities” and the Binds to avidin result was “Very weak”. Moreover, on avidin [2], the “Binds to avidin once covalently modified” value is reported as “No”. Also, the “Substrate for other biotin ligases” value with other biotin ligases is reported as “Yes”.

The Kd is the concentration at which binding is half-saturated. A higher Kd goes with lower affinity. For `[N-]=[N+]=NC(CCC[C@@H]1SC[C@@H]2NC(=O)N[C@@H]21)C(=O)O` (stereo partly shown) [2-azidobiotin], the “Level of conversion to acceptor peptide adduct by BirA, compared with biotin” value at biotin ligase (BirA) (HPLC, 30 C, 1 h) is “very similar to that of biotin”. In addition, the “Substrate for BirA” value at biotin ligase (BirA) was “Yes”. Further, the “Affinity for avidin (in words)” value on avidin [1] was “moderate-good affinity”. Besides, the Binds to avidin result at avidin [1] is “Yes”. Also, the dissociation constant (Kd) at avidin [1] (ITC, pH 7.4, 20 mM phosphate, 150 mM NaCl) is approximately 100 nM. Further, the figures for the “Binds to avidin once covalently modified” value at avidin [2] and on avidin [2] (listed as 2 Azidobiotin) were “able to binded to avidin” and “Yes”, respectively.

As to `O=C(O)CCCC[C@@H]1SC[C@@H]2NC(=O)N[C@@H]21` [biotin], at biotin ligase (BirA), the “Substrate for BirA” value is on record as “Yes”. Further, at avidin [1], the Binds to avidin result was “Yes”. Also, the “Substrate for other biotin ligases” value with other biotin ligases is on record as “Yes”.

`C#CCN1C(=O)N[C@H]2CS[C@@H](CCCCC(=O)O)[C@H]21` [cis-propargyl biotin]: the “Substrate for BirA” value at biotin ligase (BirA) is “No”. Besides, on avidin [1], the Binds to avidin result is “No/very weak”. Besides, on avidin [2], the “Binds to avidin once covalently modified” value is recorded as “No”. In the experiment with other biotin ligases, the “Substrate for other biotin ligases” value is on record as “Yes”. On biotin ligase [3], the “Substrate of Saccharomyces cerevisiae biotin ligase” value is recorded as “could utilise”. The “Substrate of Pyrococcus horikoshii biotin ligase” value with biotin ligase [4] is “could use”.

For `C[C@@H]1NC(=O)N[C@@H]1CCCCCC(=O)O` [desthiobiotin], the “Substrate of Pyrococcus horikoshii biotin ligase” value in the experiment with biotin ligase [4] is given as “could use”.

Consider `O=C(O)CCCC[C@@H]1SC[C@@H]2CC(=O)C[C@@H]21` [ketone biotin, Ketone biotin], for which the “Substrate for BirA” value on biotin ligase (BirA) is listed as “Yes”. Also, the “Binds to avidin once covalently modified” value on avidin [2] was “No”. Moreover, the “BirA ligation yield (product inhibition)” value at BirA was approximately 50%.
